{
  "source": "ChEMBL document CHEMBL5137057",
  "about": "“Small Carbohydrate Derivatives as Potent Antibiofilm Agents” (J Med Chem, 2022)",
  "key": {"[1]": {"molecular_target": "T1, PA-I galactophilic lectin (Pseudomonas aeruginosa (strain ATCC 15692 / PAO1 / 1C / PRS 101 / LMG12228), UniProt Q05097)", "T1 sequence (Q05097 whole entry)": "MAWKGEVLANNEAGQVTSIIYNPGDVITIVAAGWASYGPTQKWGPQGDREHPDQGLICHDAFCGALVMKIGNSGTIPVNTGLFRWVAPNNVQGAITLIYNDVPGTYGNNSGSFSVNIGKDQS", "experiment": "Binding affinity to Pseudomonas aeruginosa LecA assessed as dissociation constant by isothermal titration calorimetry"}, "[2]": {"molecular_target": "Type 1 fimbrin D-mannose specific adhesin (Escherichia coli K-12) (UniProt P08191)", "sequence (P08191 whole entry)": "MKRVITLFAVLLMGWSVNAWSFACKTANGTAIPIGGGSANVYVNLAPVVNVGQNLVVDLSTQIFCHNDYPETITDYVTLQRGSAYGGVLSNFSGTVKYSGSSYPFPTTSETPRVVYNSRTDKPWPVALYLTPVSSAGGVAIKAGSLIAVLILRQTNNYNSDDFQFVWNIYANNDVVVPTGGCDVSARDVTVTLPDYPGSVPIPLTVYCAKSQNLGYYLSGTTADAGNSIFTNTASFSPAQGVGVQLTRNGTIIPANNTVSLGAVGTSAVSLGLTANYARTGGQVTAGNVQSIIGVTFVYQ", "experiment": "Inhibition of Escherichia coli UTI89 FimH by hemagglutination assay"}, "Streptococcus agalactiae [3]": {"system": "Streptococcus agalactiae", "experiment": "Antibiofilm activity against Streptococcus agalactiae GRS90", "type": "functional", "conditions": "dose 128 µg/ml; time 22 hrs"}, "Streptococcus agalactiae [4]": {"system": "Streptococcus agalactiae", "experiment": "Antibiofilm activity against Streptococcus agalactiae GB2", "type": "functional"}, "[5]": {"molecular_target": "Type 1 fimbrin D-mannose specific adhesin (Escherichia coli K-12) (UniProt P08191)", "experiment": "Relative inhibitory potency, ratio of methyl alpha-D-mannose Kd to compound Kd for binding affinity to Escherichia coli FimH by ELISA assay", "conditions": "K12"}, "[6]": {"system": "Mycolicibacterium smegmatis", "experiment": "Antimicrobial activity against Mycobacterium smegmatis MC2 155 assessed as planktonic growth inhibition measured after 48 hrs by microplate reader analysis", "type": "functional"}, "[7]": {"system": "Mycolicibacterium smegmatis", "experiment": "Antibiofilm activity against Mycobacterium smegmatis MC2 155 assessed as […] measured after 48 hrs by crystal violet staining based analysis", "type": "functional"}, "Staphylococcus aureus [8]": {"system": "Staphylococcus aureus", "experiment": "Potentiation of vancomycin-induced antibacterial activity against methicillin resistant Staphylococcus aureus Mu50 in presence of vancomycin", "type": "functional, organism-based"}, "[9]": {"molecular_target": "T1, PA-I galactophilic lectin", "experiment": "Inhibition of Pseudomonas aeruginosa LecA incubated for 4 to 6 hrs by fluorescence polarization based competitive binding analysis"}, "Staphylococcus aureus [10]": {"system": "Staphylococcus aureus", "experiment": "Potentiation of vancomycin-induced antibacterial activity against methicillin resistant Staphylococcus aureus Mu50 pretreated with compound followed by vancomycin addition", "type": "functional, organism-based"}, "Escherichia coli": {"system": "Escherichia coli", "experiment": "Antibiofilm activity against Escherichia coli UTI89", "type": "functional, organism-based"}, "Staphylococcus aureus [11]": {"system": "Staphylococcus aureus", "experiment": "Antibiofilm activity against methicillin-sensitive Staphylococcus aureus UAMS-1 measured after 22 hrs by crystal violet staining based assay", "type": "functional", "conditions": "for MIC50: Staphylococcus aureus, UAMS-1"}},
  "data": [
    {"smiles": "OC[C@H]1O[C@@H](OCc2cn([C@H]3[C@H](O)[C@@H](O)[C@H](n4cc(-c5ccc(-c6cn([C@@H]7O[C@H](CO)[C@@H](n8cc(CO[C@@H]9O[C@H](CO)[C@H](O)[C@H](O)[C@H]9O)nn8)[C@H](O)[C@H]7O)nn6)cc5)nn4)O[C@@H]3CO)nn2)[C@H](O)[C@@H](O)[C@H]1O", "values": [
      {"measurement": "Kd", "setting": "[1]", "value": 0.012, "unit": "µM"}
    ]},
    {"smiles": "CNC(=O)c1cc(C(=O)NC)cc(-c2ccc(O[C@H]3O[C@H](CO)[C@@H](O)[C@H](O)[C@@H]3O)c(C(F)(F)F)c2)c1", "values": [
      {"measurement": "EC>90", "setting": "[2]", "value": 8, "unit": "nM"}
    ]},
    {"smiles": "O=c1oc2c(O[C@@H]3OC[C@H](O)[C@H](O)[C@H]3O)c(O)cc3c(=O)oc4c(O)c(O)cc1c4c23", "values": [
      {"measurement": "MBIC50", "setting": "Streptococcus agalactiae [3]", "value": 512, "unit": "µg/mL"},
      {"measurement": "MBIC50", "setting": "Streptococcus agalactiae [4]", "value": 512, "unit": "µg/mL"}
    ]},
    {"smiles": "CCOc1c(Nc2ccc(O[C@H]3O[C@H](CO)[C@@H](O)[C@H](O)[C@@H]3O)cc2)c(=O)c1=O", "values": [
      {"measurement": "Ratio", "setting": "[5]", "value": 1800}
    ]},
    {"smiles": "CNC(=O)c1cccc(-c2ccc(O[C@H]3O[C@H](CO)[C@@H](O)[C@H](O)[C@@H]3O)cc2)c1", "values": [
      {"measurement": "EC>90", "setting": "[2]", "value": 500, "unit": "nM"}
    ]},
    {"smiles": "OC[C@H]1O[C@H](O[C@H]2O[C@H](CF)[C@@H](O)[C@H](O)[C@H]2O)[C@H](O)[C@@H](O)[C@@H]1O", "values": [
      {"measurement": "MIC", "setting": "[6]", "value": "> 500", "unit": "µM"},
      {"measurement": "MBIC", "setting": "[7]", "value": 100, "unit": "µM"}
    ]},
    {"smiles": "O=C(NC[C@]1(O)CO[C@H](CNC(=O)c2ccccc2Cl)[C@H]1O)c1ccccc1", "values": [
      {"measurement": "EC50", "setting": "Staphylococcus aureus [8]", "value": 7.98, "unit": "µM"}
    ]},
    {"smiles": "COc1ccc(/C=N/NC(=O)c2ccc(O[C@@H]3O[C@H](CO)[C@H](O)[C@H](O)[C@H]3O)cc2)cc1", "values": [
      {"measurement": "Kd", "setting": "[1]", "value": 5.6, "unit": "µM"},
      {"measurement": "IC50", "setting": "[9]", "value": 55.5, "unit": "µM"}
    ]},
    {"smiles": "OC[C@H]1O[C@@H](Oc2ccccc2)[C@H](O)[C@@H](O)[C@H]1O", "values": [
      {"measurement": "IC50", "setting": "[9]", "value": 13.2, "unit": "µM"}
    ]},
    {"smiles": "O=C(O)/C=C(\\C[C@@H]1O[C@H](CO)[C@H](O)[C@H](O)[C@H]1O)c1ccccc1", "values": [
      {"measurement": "Kd", "setting": "[1]", "value": 37, "unit": "µM"}
    ]},
    {"smiles": "O=C(NC[C@]1(O)CO[C@H](CN2C(=O)c3ccccc3C2=O)[C@H]1O)c1ccccc1Cl", "values": [
      {"measurement": "EC50", "setting": "Staphylococcus aureus [10]", "value": 260, "unit": "nM"},
      {"measurement": "EC50", "setting": "Staphylococcus aureus [8]", "value": 1.27, "unit": "µM"}
    ]},
    {"smiles": "C[C@H]1O[C@H](O[C@H]2O[C@H](CO)[C@@H](O)[C@H](O)[C@H]2O)[C@H](O)[C@@H](O)[C@@H]1O", "values": [
      {"measurement": "MIC", "setting": "[6]", "value": "> 500", "unit": "µM"},
      {"measurement": "MBIC", "setting": "[7]", "value": 100, "unit": "µM"}
    ]},
    {"smiles": "Cc1cc(-c2ccc3ccn(C(=O)Nc4cccnc4)c(=O)c3c2)ccc1O[C@H]1O[C@H](CO)[C@@H](O)[C@H](O)[C@@H]1O", "values": [
      {"measurement": "EC>90", "setting": "[2]", "value": 62, "unit": "nM"}
    ]},
    {"smiles": "O[C@H]1[C@@H](O)[C@@H](C2CO2)O[C@@H](Oc2ccccc2)[C@@H]1O", "note": "(stereo not given in full)", "values": [
      {"measurement": "IC50", "setting": "[9]", "value": 64, "unit": "µM"}
    ]},
    {"smiles": "Cc1cc(-c2ccc3ccn(CC(=O)Nc4cccnc4)c(=O)c3c2)ccc1O[C@H]1O[C@H](CO)[C@@H](O)[C@H](O)[C@@H]1O", "values": [
      {"measurement": "EC>90", "setting": "[2]", "value": 1, "unit": "nM"},
      {"measurement": "IC50", "setting": "Escherichia coli", "value": 18, "unit": "nM"}
    ]},
    {"smiles": "CCOc1c(Nc2ccc(O[C@H]3O[C@H](CO)[C@@H](O)[C@H](O)[C@@H]3O)c(Cl)c2)c(=O)c1=O", "values": [
      {"measurement": "Ratio", "setting": "[5]", "value": 6900}
    ]},
    {"smiles": "CNC(=O)c1cccc(-c2ccc(O[C@H]3O[C@H](CO)[C@@H](O)[C@H](O)[C@@H]3O)c(C)c2)c1", "values": [
      {"measurement": "EC>90", "setting": "[2]", "value": 62, "unit": "nM"}
    ]},
    {"smiles": "O=c1oc2c(O[C@@H]3OC[C@@H](O)[C@H](O)[C@H]3O)c(O)cc3c(=O)oc4c(O)c(O)cc1c4c23", "values": [
      {"measurement": "MBIC50", "setting": "Staphylococcus aureus [11]", "value": 64, "unit": "µg/mL"},
      {"measurement": "MBIC90", "setting": "Staphylococcus aureus [11]", "value": ">512", "unit": "µg/mL"},
      {"measurement": "MIC50", "setting": "Staphylococcus aureus [11]", "value": 32, "unit": "µg/mL"},
      {"measurement": "MBIC50", "setting": "Streptococcus agalactiae [3]", "value": 512, "unit": "µg/mL"},
      {"measurement": "MBIC50", "setting": "Streptococcus agalactiae [4]", "value": 512, "unit": "µg/mL"}
    ]},
    {"smiles": "CNC(=O)c1cc(C(=O)NC)cc(-c2ccc(O[C@H]3O[C@H](CO)[C@@H](O)[C@H](O)[C@@H]3O)cc2)c1", "values": [
      {"measurement": "EC>90", "setting": "[2]", "value": 375, "unit": "nM"}
    ]},
    {"smiles": "O[C@H]1[C@@H](O)[C@H](C2CO2)O[C@@H](Oc2ccccc2)[C@@H]1O", "note": "(single isomer, unassigned)", "values": [
      {"measurement": "IC50", "setting": "[9]", "value": "> 3000", "unit": "µM"}
    ]},
    {"smiles": "C[C@@H]1O[C@@H](Oc2c(O)cc3c(=O)oc4c(O)c(O)cc5c(=O)oc2c3c45)[C@H](O)[C@H](O)[C@H]1O", "values": [
      {"measurement": "MBIC50", "setting": "Staphylococcus aureus [11]", "value": 64, "unit": "µg/mL"},
      {"measurement": "MBIC90", "setting": "Staphylococcus aureus [11]", "value": 128, "unit": "µg/mL"},
      {"measurement": "MIC50", "setting": "Staphylococcus aureus [11]", "value": "> 512", "unit": "µg/mL"}
    ]},
    {"smiles": "O=C(NC[C@]1(O)CO[C@H](CN2C(=O)c3ccccc3C2=O)[C@H]1O)c1ccccc1", "values": [
      {"measurement": "EC50", "setting": "Staphylococcus aureus [10]", "value": 5010, "unit": "nM"},
      {"measurement": "EC50", "setting": "Staphylococcus aureus [8]", "value": 8.29, "unit": "µM"}
    ]}
  ]
}
